Laboratory results: patent publication US9598396B2, “Tetrahydrophenanthridinones and tetrahydrocyclopentaquinolinones as PARP and tubulin polymerization inhibitors” (Janssen Pharmaceutica NV, priority 2008, dated 2017)

Assays:
TANK-2 enzyme = TANK-2 enzyme (Homo sapiens (Human), UniProt Q9H2K2); test: In vitro Scintillation Proximity Assay (SPA) for TANK-2 inhibitory activity; assay type: biochemical; conditions: auto-poly(ADP-ribosyl)ation, [3H]-NAD+, Ni flash plates (96 or 384 well)
Method: C.2.In Vitro Scintillation Proximity Assay (SPA) for TANK-2 Inhibitory Activity
Compounds of the present invention were tested in an in vitro assay based on SPA technology with Ni Flash plates (96 or 384 well).
In principle, the assay relies upon SPA technology for the detection of auto-poly(ADP-ribosyl)ation of TANK-2 protein using [^3H]-nicotinamide adenine dinucleotide ([^3H]-NAD^+) as ADP-ribosyl donor.
A stock solution of 100 nM [^3H]-NAD^+/NAD (0.1 mCi/ml, supplier: Perkin Elmer) and 25 μM NAD (Sigma) was made in assay buffer (60 mM Tris/HCl, pH 7.4; 0.9 mM DTT; 6 mM MgCl2). The TANK-2 enzyme was produced as described in EP1238063. 60 μl of assay buffer, together with 1 μl of compound in DMSO, 20 μl of [^3H]-NAD^+/NAD and 20 μl of TANK-2 enzyme (final concentration 8 μg/ml) was added per well into a 96-well Ni-coated flash plate (Perkin Elmer). After incubation of the mixture for 120 minutes at room temperature, the reaction was terminated by adding 60 μl of stopsolution (42.6 mg NAD in 6 ml H2O). The plates were covered with a plate sealer and placed in a TopCountNXT™ (Packard) for scintillation counting. Values were expressed as counts per minute (cpm). For each experiment, controls (containing TANK-2 enzyme and DMSO without compound), a blank incubation (containing DMSO but no TANK-2 enzyme or compound) and samples (containing TANK-2 enzyme and compound dissolved in DMSO) were run in parallel. All compounds tested were dissolved and eventually further diluted in DMSO. In first instance, compounds were tested at a concentration of 10^−5M. […] In each test, the blank value was subtracted from both the control and the sample values. The control sample represented maximal TANK-2 enzyme activity. For each sample, the amount of cpm was expressed as a percentage of the mean cpm value of the controls. […] Herein the effects of test compounds are expressed as pIC50 (the negative log value of the IC50-value). As reference compounds, 3-aminobenzamide and 4-amino-1,8-naphtalimide were included to validate the SPA assay. Herein the assay was described using 96-well plates. In the assay using 384-well plates the same final concentrations were used and volumes were adapted.

tubulin = test: Tubulin polymerization assay; assay type: biochemical; conditions: inhibition of polymerization at 20 μM and 5 μM
Method: Example C.5 Polymerization Assay
The tubulin polymerization assay is an adaptation of an assay originally described by Bonne, D. et al. (J. Biol. Chem., 1985, 260:2819-25). The assay kit was purchased from Cytoskeleton, Inc. (catalogue number BK011) and the assay was performed as described by the supplier with the following modifications. The assay was run in a 384-well black Proxiplate (Perkin Elmer) and volumes were adapted accordingly. The reactions were carried out in a final volume of 10 μl. Compounds were added to 25 μl of the reaction mix in 96-well PP plates (Corning) on ice and 10 μl of this mixture was dispensed into duplicates of the 384-well Proxiplates pre-warmed to 37° C. in a Fluoroskan Ascent plate reader (Thermo Scientific). Fluorescence measurements were taken every minute for one hour. The maximum slope of each well was determined (linear regression through 4 consecutive points) and polymerization was calculated as a percentage of polymerization observed in the absence of compound.

[1] = system: human prostate cancer PC3 cells; test: Eb1 Comet (microtubule disruption) assay; assay type: cell-based; conditions: 1 hour treatment, LAC = concentration where Eb1 foci absent in at least 50% of treated cells
Source text: Example C.6 Eb1 Comet (Microtubule Disruption) Assay
The Eb1 Comet assay relies on the detection of the Eb1 protein at the plus end of polymerizing microtubules (Mimori-Kiyosue, 2000) using indirect immunofluorescence. Disruption of microtubule dynamics through de-polymerization or stabilization results in a de-localization of Eb1 from the growing microtubule ends and this is visualized by the disappearance of Eb1 containing cytoplasmic foci.
Briefly, human prostate cancer PC3 cells obtained from the American Type Culture Collection were grown in 96-well plates (Greiner, cat. no. 655090) in HAM's F12 medium as recommended by the provider (ATCC). The cells were treated for 1 hour at 37° C. with compounds dissolved in DMSO (0.6% final DMSO concentration). The culture medium was then removed by aspiration and the cells were fixed by adding cold methanol (−20 C). After a 15 minutes incubation at −20° C., the cells were washed twice with DPBS (Gibco) containing 0.5% Triton X-100. Mouse Eb1 antibody (BD Transduction Laboratories, cat. no. 610534) was added to the cells (1/250 dilution in DPBS containing 1% BSA) and incubated overnight at room temperature. The antibody was subsequently removed and the cells washed twice with DPBS, 0.5% Triton X-100. Secondary goat anti-mouse antibody conjugated to Alexa 488 fluorescent dye (Molecular Probes) was added at a 1/500 dilution in DPBS, 1% BSA and incubated for 1 hour at 37° C. The cells were washed twice with DPBS, 0.5% Triton X-100 and then DPBS containing 0.5% Triton X-100 and 1/5000 Hoechst 33342 (Molecular Probes) was added. Microscopy based Eb1 foci visualization was carried out using an IN Cell Analyser 1000 (Amersham Biosciences) using a 20× objective. Compound dependent microtubule disruption was visually determined by the disappearance in Eb1 foci. The lowest active concentration (LAC) was determined as the concentration where Eb1 foci were absent in at least 50% of the treated cells. Herein the effects of tested compounds are expressed as pLAC (the negative log value of the LAC value) (see Table 3).

Chain of TANK-2 enzyme (Q9H2K2 whole entry): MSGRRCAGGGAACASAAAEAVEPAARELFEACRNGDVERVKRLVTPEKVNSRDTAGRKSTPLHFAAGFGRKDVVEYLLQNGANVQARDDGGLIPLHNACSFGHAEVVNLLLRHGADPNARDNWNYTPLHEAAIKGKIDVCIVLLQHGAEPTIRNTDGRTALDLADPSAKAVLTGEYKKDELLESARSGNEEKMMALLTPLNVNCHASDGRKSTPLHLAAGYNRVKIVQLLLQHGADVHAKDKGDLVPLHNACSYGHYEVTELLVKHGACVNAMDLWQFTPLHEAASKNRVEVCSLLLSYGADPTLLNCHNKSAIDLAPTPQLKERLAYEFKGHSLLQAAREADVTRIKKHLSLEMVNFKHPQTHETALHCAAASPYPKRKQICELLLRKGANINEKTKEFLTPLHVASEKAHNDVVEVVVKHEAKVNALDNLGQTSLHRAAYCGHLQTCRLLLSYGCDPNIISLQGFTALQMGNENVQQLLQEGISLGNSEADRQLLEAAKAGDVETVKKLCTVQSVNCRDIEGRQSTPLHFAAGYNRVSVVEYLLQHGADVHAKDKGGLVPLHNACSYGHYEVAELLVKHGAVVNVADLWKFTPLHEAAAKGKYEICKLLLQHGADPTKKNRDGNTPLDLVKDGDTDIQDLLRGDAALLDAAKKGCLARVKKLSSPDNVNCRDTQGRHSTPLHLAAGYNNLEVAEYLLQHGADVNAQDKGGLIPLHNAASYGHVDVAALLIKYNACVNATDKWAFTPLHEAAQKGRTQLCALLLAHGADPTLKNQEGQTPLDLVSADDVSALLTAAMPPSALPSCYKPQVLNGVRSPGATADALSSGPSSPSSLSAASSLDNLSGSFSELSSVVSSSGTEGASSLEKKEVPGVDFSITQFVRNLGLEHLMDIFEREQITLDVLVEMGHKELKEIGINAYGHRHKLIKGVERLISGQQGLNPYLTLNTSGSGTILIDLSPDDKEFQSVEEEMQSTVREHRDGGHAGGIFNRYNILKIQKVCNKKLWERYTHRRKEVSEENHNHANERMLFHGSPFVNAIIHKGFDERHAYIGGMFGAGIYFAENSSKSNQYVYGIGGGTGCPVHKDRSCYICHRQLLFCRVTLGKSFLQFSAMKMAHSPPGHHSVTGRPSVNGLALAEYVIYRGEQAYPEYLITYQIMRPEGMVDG

in vitro SPA assay TANK-2 pIC50 (TANK-2 enzyme) | Compound | Assay Tubulin Polymerization score (tubulin) | Cellular assay Eb1 pLAC [1]
7.85 | CC(C#N)(Cc1ccccc1)c1ccc2c3c(c(=O)[nH]c2c1)CCCC3 (centres unmarked) [Co. No. 1] | 2 | 
7.76 | CC(C#N)(Cc1cccc(C#N)c1)c1ccc2c3c(c(=O)[nH]c2c1)CCCC3 (centres unmarked) [Co. No. 4] | 2 | 
7.71 | CC(C#N)(Cc1cccc(F)c1)c1ccc2c3c(c(=O)[nH]c2c1)CCCC3 (centres unmarked) [Co. No. 5] | 2 | 7
8.02 | CC(C#N)(Cc1cccc(C#N)n1)c1ccc2c3c(c(=O)[nH]c2c1)CCCC3 (centres unmarked) [Co. No. 7] | 3 (a compound showing more than 50% inhibition at 5 μM is reported as score 3) | 7.5
7.28 | CC(C#N)(Cc1cccc(Cl)c1)c1ccc2c3c(c(=O)[nH]c2c1)CCCC3 (centres unmarked) [Co. No. 8] | 2 | 
7.28 | CC(C#N)(CCOc1ccc(C#N)cc1)c1ccc2c3c(c(=O)[nH]c2c1)CCCC3 (centres unmarked) [Co. No. 17] | 2 | 
